# In patent publication US20090118242A1 (AlgoRx, priority 2002, published 2009):
# Several values for one entry are separate records, joined by “and”; a condition that tells them apart may be missing. Equal values may be shown once.
# Assays:
# patients = settings: cited from earlier work
# [1] = test system: animal models of inflammatory (formalin test) pain; settings: administered locally; cited from earlier work
# [2] = test system: subjects with osteoarthritis of the knee; assay: Osteoarthritis of the Knee Safety Study: safety and tolerability of intra-articular purified capsaicin with local anesthetic; type: in vivo, human
# Description: The primary objective of the study was to evaluate the safety and tolerability of intra-articular capsaicin, when co-administered with intra-articular local anesthetic, compared to placebo, in subjects with end-stage osteoarthritis of the knee, already scheduled to receive knee replacements.
# The study was designed to include 16 evaluation subjects. […] Sixteen subjects completed the study.
# Patients were treated randomly and in double-blind fashion in four treatment groups, with each group having a progressively longer interval between the intra-articular administration of study medication and subsequent total knee replacement (2, 4, 7, and 14 days). […] Gross and microscopic pathology analysis was completed for each treatment group before the next treatment group was treated.
# (§1) Each subject had 3 study visits: a Screening Day (Day −7 to −1), the Treatment Day (Day 0), and a Post-Treatment Day (scheduled for Day +2, +4, +7, or +14). On the Treatment Day the subject was randomized, pre-treatment evaluation was performed. The patients were brought into the procedure room, and a VAS pain score was taken (0 mm—no pain, 100 mm—extreme pain). Once the patient had marked his or her pain on the card, he/she was prepped for knee cannulation. Once the cannula was placed, the patient received by intra-articular infiltration, 3 mg/kg (maximum dose of 200 mg) of 2% lignocaine into the knee scheduled to be replaced.
# (§2) VAS pain scores as well as verbal reports were taken immediately following administration, as well as prior to knee replacement surgery. No subjects discontinued from the study due to adverse events.
# [3] = set-up: species or system human; settings: in vivo
# Description: The pharmacokinetic parameters of Cmax, Tmax, AUC (0−tlast) and t½ were evaluated.
# [4] = test system: subjects with osteoarthritis of the knee; assay: Osteoarthritis of the Knee Safety Study: VAS pain score at the target knee; type: in vivo, human
# Description: as §1, §2
# On the Post-Treatment Day, study evaluation was performed followed by the scheduled knee replacement, with intra-operative bone and soft tissue biopsies performed for subsequent examination. […] This therefore left the 3 placebo and 9 active patients from the 4 day, 7 day, and 14 day cohorts.
# [5] = test system: subjects undergoing transpositional osteotomy (bunionectomy); assay: Bunionectomy Efficacy Study: VAS pain at operation site and rescue medication; type: in vivo, human; settings: for VAS pain score at operation site (mean +/− SEM): 1000 μg into wound, n = 11
# Description: The primary efficacy endpoint was the proportion of subjects in each treatment group requiring opioid analgesia in the first 24 hours post-operatively. The proportions were compared amongst treatment groups using the Cochran-Haenszel test. Secondary efficacy end points included: i) proportion of subjects in each treatment group requiring opioid analgesia in the first 36 hour period post-operatively (Similarly, the proportions were compared amongst treatment groups using the Cochran-Haenszel test); ii) proportion of subjects in each treatment group requiring opioid analgesia in the 10 day period post-operatively (Similarly, the proportions were compared amongst treatment groups using the Cochran-Haenszel test); iii) time to first usage of opioid analgesia in each treatment group (a survival analysis approach will be used: the product-limit (Kaplan-Meier) method will be applied to time to first usage of opioid analgesia. The median time to first usage of opioid analgesia will be estimated in both treatment groups. Pairwise comparisons will be performed to test for equality of the survival curves between the 2 treatment groups using both the log-rank and the Wilcoxon test); iv) total usage of analgesia in each treatment group (the total usage of analgesia will be compared by an analysis of variance with treatment and center as independent variables. A pairwise comparison will be performed between the treatment groups); and v) VAS, assessment of pain at the site of operation in each treatment group. (The VAS score at each time point will be compared by an analysis of variance with treatment and center as independent variables. A pairwise comparison will be performed between the treatment groups). […] The efficacy analysis was performed on the data obtained ten days postoperatively. The safety analysis was performed based on the safety data for the entire study, including the 6 week and 12 week follow-up periods. The blind was broken at the time the efficacy analysis was performed. However, the individual treatment assignment was available to the statistical analysis group only. All other personnel involved in the study, including the Investigator, study monitor and proprietary staff, remained blinded until the entire study was completed.
# The study was designed to include 40 evaluation subjects. […] Each subject had six (6) study visits: a Screening Day (Day −28 to −1), an Operation Day (Day 0), and four (4) Follow-up visits (scheduled for Days 3, 10 and weeks 6 and 12).
# On Operation Day (Day 0) the following was performed: a) Pre-operation: Prior to the initiation of an ankle block, inclusion/exclusion criteria assessment was performed. […] Immediately prior to wound closure, the Investigator slowly dripped the study medication (4 mL) from a syringe into the wound, ensuring even tissue exposure. The wound was then be closed according to normal practices and procedures.
# In the 24 hours following administration of study medication, vital signs (supine pulse rate and blood pressure) were recorded at 1, 2, 4 and 24 hours post administration. VAS assessment of pain at the operation site was performed at 1, 4, 8, 12 and 24 hours post administration. In those instances where VAS measurements coincide with blood sampling procedures, the VAS assessment was performed first. […] The quantity of each blood sample was 10 mL. Laboratory safety assessments, e.g., haematology, biochemistry, urinalysis were performed at 24 hours post administration. Adverse events were spontaneously reported by the subject and recorded. Rescue analgesia medication was provided to the subject if required (initially diclofenac 50 mg, repeated at 8-hourly intervals if necessary). When diclofenac was judged by the Investigator to provide inadequate pain relief then the subject was provided with alfentanil 1 mg, repeated at 6 hourly intervals, if necessary.
# rats = settings: systemic, final doses of 25 mg/kg or less; cited from earlier work
# [6] = 10, 100, 300 μg intra-articular
# [7] = 1000 μg prior to wound closure, n=11
compound,measurement,setting,value
CN1C(C(=O)Nc2ccccn2)=C(O)c2ccccc2S1(=O)=O [piroxicam],patients experiencing gross bleeding and ulceration,patients,up to 4%
CNCCCN1c2ccccc2CCc2ccccc21 [desipramine],local antinociceptive action,[1],produced local antinociceptive actions
"COc1cc(CNC(=O)CCCC/C=C/C(C)C)ccc1O [purified capsaicin, N-(4-hydroxy-3-methoxybenzyl)-8-methylnon-trans-6-enamide]","duration of post-administration (hyper)algesic pain, individual subject",[2]; 100 μg dose group,9 min
same,"duration of post-administration (hyper)algesic pain, individual subjects",[2]; 300 μg dose group,17 minutes and 25 minutes (2×) and 42 minutes
same,effects on laboratory safety parameters or vital signs,[2]; [6],no treatment related effects on laboratory safety parameters or vital signs
same,"effects on soft tissue, cartilage, or bone upon histopathological examination",[2]; [6],"no treatment related effects on soft tissue, cartilage, or bone"
same,"erythema, edema, or hemorrhage at the site of injection",[2]; [6],"no treatment related signs of erythema, edema, or hemorrhage"
same,leakage of study drug from the joint space,[2]; [6],low leakage
same,systemic side effects,[2]; [6],No treatment related systemic side effects
same,gross and microscopic pathology,[2]; knee tissue at replacement 2-14 days after dose,normal
same,plasma concentrations in the 10 μg dose group compared with the 100 μg or 300 μg dose groups,[3],clearly lower
same,"VAS reduction, prior to administration versus day of surgery","[4]; 9 active patients of the 4, 7 and 14 day cohorts, 10-300 μg pooled",62±14%
same,"median decrease from baseline to pre-operative time point in VAS for pain at target knee, versus placebo",[4]; all 3 capsaicin dose groups,substantially greater
same,treatment related indication of efficacy (VAS),"[4]; any of the dose levels (10 μg, 100 μg, 300 μg)",No clear treatment related indication of efficacy
same,VAS pain score at operation site (mean +/− SEM),[5]; 8 hr,5.5 +/− 2.3
same,VAS pain score at operation site (mean +/− SEM),[5]; 12 hr,8.2 +/− 3.8
same,VAS pain score at operation site (mean +/− SEM),[5]; 24 hr,1.9 +/− 1.0
same,VAS pain score at operation site (mean +/− SEM),[5]; 48 hr,5.9 +/− 2.5
same,subjects who did not rescue in 72 hours,[5]; [7],6 subjects
same,time at which individual subject required rescue,[5]; [7],1 h and 4 h and 5 h and 8 h and 12 h
same,effect on pain threshold,rats,did not elevate the pain threshold above normal range
CN(C)CCC=C1c2ccccc2CCc2ccccc21 [amitriptyline],local antinociceptive action,[1],produced local antinociceptive actions
